Results: patent US12459891B2, “1-[1-(4-benzyloxy-3,5-difluoro-benzoyl)-4-fluoro-pyrrolidine-2-carbonyl]-pyrrolidine-2-carbonitrile” (ACCURE THERAPEUTICS, S.L., priority 2020, dated 2025)

Legend:
MK-801-treated mice = test: Novel object recognition (NOR) task, MK-801-induced cognitive deficit; assay type: in vivo, male C57/Bl6 mice; conditions: mean ± s.e.m.
POP = conditions: non-competitive POP inhibitor; read-out: IC50 (POP inhibition); cited from earlier work

Compound | % discrimination index (MK-801-treated mice; MK 801 0.2 mg/kg sc alone (vehicle ip), intraperitoneal experiment) | % discrimination index (MK-801-treated mice; MK 801 0.2 mg/kg sc alone (vehicle po), oral experiment) | IC50 (POP)
C[C@]12N[C@H](Cc3ccccc31)c1ccccc12 [MK 801, Dizocilpine] | 21 ± 4.7% | 16.6 ± 5.9% | –
O=C(/C=C/c1ccc(O)c(O)c1)O[C@H](Cc1ccc(O)c(O)c1)C(=O)O [rosmarinic acid] | – | – | 63.7 µM
